# From article PMC12691695, “Functional insight into cyclin-dependent kinase (CDK)7 via chemical inhibition of the priority fungal pathogen Cryptococcus neoformans” (mBio, 2025)
# Target: T1, CnCDK7; pulled-down CAK complex (CnCAK: CDK7-CycH-Mat1) (Cryptococcus neoformans, UniProt J9W126)
# T1 construct: gene CNAG_06445; native trimeric CAK complex pulled down on mNeonGreen-Trap beads from C. neoformans; CDK7 tagged with mNeonGreen, CycH with V5, Mat1 with 6xHis; with Cyclin H
# T1 sequence (J9W126 1-358): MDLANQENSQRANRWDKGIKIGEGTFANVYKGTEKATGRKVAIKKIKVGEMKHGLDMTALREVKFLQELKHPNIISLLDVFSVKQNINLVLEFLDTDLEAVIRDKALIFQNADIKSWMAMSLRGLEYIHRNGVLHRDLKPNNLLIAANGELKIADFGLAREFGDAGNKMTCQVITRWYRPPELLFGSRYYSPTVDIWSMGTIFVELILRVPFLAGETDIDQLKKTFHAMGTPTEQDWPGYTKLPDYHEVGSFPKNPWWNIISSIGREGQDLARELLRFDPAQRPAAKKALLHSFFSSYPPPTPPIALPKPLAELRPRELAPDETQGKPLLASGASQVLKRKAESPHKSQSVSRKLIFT
# T1 sequence (J9VUP1 1-447 partner): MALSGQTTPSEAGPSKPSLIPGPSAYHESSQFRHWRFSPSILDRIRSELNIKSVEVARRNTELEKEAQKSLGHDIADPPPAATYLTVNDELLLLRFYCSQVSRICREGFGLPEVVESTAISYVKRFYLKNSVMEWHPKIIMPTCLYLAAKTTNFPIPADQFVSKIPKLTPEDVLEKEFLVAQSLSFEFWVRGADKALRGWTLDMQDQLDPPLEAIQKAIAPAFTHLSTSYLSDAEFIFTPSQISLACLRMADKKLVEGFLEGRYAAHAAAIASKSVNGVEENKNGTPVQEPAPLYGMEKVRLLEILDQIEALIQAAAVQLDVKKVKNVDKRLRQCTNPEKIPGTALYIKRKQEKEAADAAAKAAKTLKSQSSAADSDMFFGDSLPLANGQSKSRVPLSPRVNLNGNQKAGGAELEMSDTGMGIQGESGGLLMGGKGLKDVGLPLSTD
# T1 sequence (J9VS06 1-372 partner): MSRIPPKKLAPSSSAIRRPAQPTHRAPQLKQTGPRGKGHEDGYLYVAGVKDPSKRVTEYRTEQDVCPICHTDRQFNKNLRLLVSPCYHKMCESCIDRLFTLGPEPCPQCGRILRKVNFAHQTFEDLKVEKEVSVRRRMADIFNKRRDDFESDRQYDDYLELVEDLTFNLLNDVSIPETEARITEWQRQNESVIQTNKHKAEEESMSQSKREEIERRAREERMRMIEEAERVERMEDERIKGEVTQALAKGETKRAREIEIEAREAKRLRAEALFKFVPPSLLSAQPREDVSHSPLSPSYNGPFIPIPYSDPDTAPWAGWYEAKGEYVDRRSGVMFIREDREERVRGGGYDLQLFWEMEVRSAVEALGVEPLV
# Experiment: Kinase-Glo ATP consumption, pulled-down CAK, […] min
# Type: biochemical
# Settings: co-substrate 250 µM CDK7/9tide; 20 mM MgCl2, pH 7.5, room temperature; bead-bound complex
smiles,measurement,value
Nc1ncnc2c1ncn2[C@@H]1O[C@H](COP(=O)(O)OP(=O)(O)OP(=O)(O)O)[C@@H](O)[C@H]1O [ATP],"Kinase-Glo ATP consumption, pulled-down CAK, 300 min",ATP consumption (due to the phosphorylation of the peptide substrate by CDK7)
